Legend:
Experiment in all cases: relative viability (nuclei count vs DMSO), 5 days (fraction); higher = more cells survive
[1] = test system: 201T
How it was run: (§1)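 After 5 days of treatment, lung cancer cells in 1536-well plates were fixed and stained in a single step (final 0.05% Triton X-100, 1% formaldehyde, 1 ug/ml Hoechst) and their nuclei counted on 4× images. Treatment had been applied by pin tool the day after seeding as one drug alone or as a fixed anchor-drug dose with five library-drug doses (not always all listed) in √10 steps. Relative viability is the nuclei count of treated wells divided by that of vehicle wells, and values are medians of duplicate plates.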

[2] = test system: BEN
How it was run: as §1

[3] = test system: COR-L 105
How it was run: as §1

[4] = test system: EKVX
How it was run: as §1

[5] = test system: EPLC-272H
How it was run: as §1

[6] = test system: H3255
How it was run: as §1

[7] = test system: HCC-44
How it was run: as §1

[8] = test system: HCC-827
How it was run: as §1

[9] = test system: LCLC-97TM1
How it was run: as §1

[10] = test system: LOU-NH91
How it was run: as §1

[11] = test system: LU99A
How it was run: as §1

[12] = test system: NCI-H1437
How it was run: as §1

[13] = test system: NCI-H1666
How it was run: as §1

[14] = test system: NCI-H1975
How it was run: as §1

[15] = test system: NCI-H2085
How it was run: as §1

[16] = test system: NCI-H2087
How it was run: as §1

[17] = test system: NCI-H2170
How it was run: as §1

[18] = test system: NCI-H647
How it was run: as §1

[19] = test system: NCI-H650
How it was run: as §1

[20] = test system: PC-3 [JPC-3]
How it was run: as §1

[21] = test system: SW 1573
How it was run: as §1

`Nc1ccn([C@@H]2O[C@H](CO)[C@@H](O)[C@@H]2O)c(=O)n1` [Cytarabine] + Cc1nc(NC(=O)N2CCC[C@H]2C(N)=O)sc1-c1ccnc(C(C)(C)C(F)(F)F)c1 [Alpelisib] (partner 2 µM) was tested, and the relative viability ([1]; first compound 0.005 µM) was 0.999, the relative viability ([1]; first compound 0.01581 µM) was 0.983 and the relative viability ([1]; first compound 0.05 µM) was 1.02. The relative viability ([1]; first compound 0.1581 µM) was 0.887, the relative viability ([1]; first compound 0.5 µM) was 0.872 and the relative viability ([2]; first compound 0.005 µM) was 0.832. The relative viability ([2]; first compound 0.01581 µM) was 0.821, the relative viability ([2]; first compound 0.05 µM) was 0.634 and the relative viability ([2]; first compound 0.1581 µM) was 0.418. It also gave a relative viability ([2]; first compound 0.5 µM) of 0.353, a relative viability ([3]; first compound 0.005 µM) of 0.86 and a relative viability ([3]; first compound 0.01581 µM) of 1.07. It also gave a relative viability ([3]; first compound 0.05 µM) of 0.675, a relative viability ([3]; first compound 0.1581 µM) of 0.444 and a relative viability ([3]; first compound 0.5 µM) of 0.355. The relative viability ([4]; first compound 0.005 µM) was 0.867, the relative viability ([4]; first compound 0.01581 µM) was 0.893 and the relative viability ([4]; first compound 0.05 µM) was 0.818. For the same compound, the relative viability ([4]; first compound 0.1581 µM) was 0.371, the relative viability ([4]; first compound 0.5 µM) was 0.211 and the relative viability ([5]; first compound 0.005 µM) was 0.7. For the same compound, the relative viability ([5]; first compound 0.01581 µM) was 0.781, the relative viability ([5]; first compound 0.05 µM) was 0.609 and the relative viability ([5]; first compound 0.1581 µM) was 0.345. The relative viability ([5]; first compound 0.5 µM) was 0.337, the relative viability ([6]; first compound 0.005 µM) was 0.757 and the relative viability ([6]; first compound 0.01581 µM) was 0.673. It also gave a relative viability ([6]; first compound 0.05 µM) of 0.566, a relative viability ([6]; first compound 0.1581 µM) of 0.524 and a relative viability ([6]; first compound 0.5 µM) of 0.469. For the same compound, the relative viability ([7]; first compound 0.005 µM) was 0.806, the relative viability ([7]; first compound 0.01581 µM) was 0.726 and the relative viability ([7]; first compound 0.05 µM) was 0.586. The relative viability ([7]; first compound 0.1581 µM) was 0.429, the relative viability ([7]; first compound 0.5 µM) was 0.517 and the relative viability ([8]; first compound 0.005 µM) was 0.697. It also gave a relative viability ([8]; first compound 0.01581 µM) of 0.448, a relative viability ([8]; first compound 0.05 µM) of 0.467 and a relative viability ([8]; first compound 0.1581 µM) of 0.242. The relative viability ([8]; first compound 0.5 µM) was 0.197, the relative viability ([9]; first compound 0.005 µM) was 0.235 and the relative viability ([9]; first compound 0.01581 µM) was 0.124. It also gave a relative viability ([9]; first compound 0.1581 µM) of 0.101, a relative viability ([9]; first compound 0.5 µM) of 0.0953 and a relative viability ([10]; first compound 0.005 µM) of 0.708. The relative viability ([10]; first compound 0.01581 µM) was 0.695, the relative viability ([10]; first compound 0.05 µM) was 0.603 and the relative viability ([10]; first compound 0.1581 µM) was 0.425. It also gave a relative viability ([10]; first compound 0.5 µM) of 0.462, a relative viability ([11]; first compound 0.005 µM) of 0.519 and a relative viability ([11]; first compound 0.01581 µM) of 0.565. For the same compound, the relative viability ([11]; first compound 0.05 µM) was 0.51, the relative viability ([11]; first compound 0.1581 µM) was 0.5 and the relative viability ([11]; first compound 0.5 µM) was 0.406. For the same compound, the relative viability ([12]; first compound 0.005 µM) was 0.666, the relative viability ([12]; first compound 0.01581 µM) was 0.631 and the relative viability ([12]; first compound 0.05 µM) was 0.43. It also gave a relative viability ([12]; first compound 0.1581 µM) of 0.237, a relative viability ([12]; first compound 0.5 µM) of 0.151 and a relative viability ([13]; first compound 0.005 µM) of 0.751. The relative viability ([13]; first compound 0.01581 µM) was 0.855, the relative viability ([13]; first compound 0.05 µM) was 0.647 and the relative viability ([13]; first compound 0.1581 µM) was 0.279. The relative viability ([13]; first compound 0.5 µM) was 0.35, the relative viability ([14]; first compound 0.005 µM) was 0.442 and the relative viability ([14]; first compound 0.01581 µM) was 0.761. It also gave a relative viability ([14]; first compound 0.05 µM) of 0.801, a relative viability ([14]; first compound 0.1581 µM) of 0.418 and a relative viability ([14]; first compound 0.5 µM) of 0.313. For the same compound, the relative viability ([15]; first compound 0.005 µM) was 0.936, the relative viability ([15]; first compound 0.01581 µM) was 0.827 and the relative viability ([15]; first compound 0.05 µM) was 0.869. It also gave a relative viability ([15]; first compound 0.1581 µM) of 0.62, a relative viability ([15]; first compound 0.5 µM) of 0.558 and a relative viability ([16]; first compound 0.005 µM) of 0.962. The relative viability ([16]; first compound 0.01581 µM) was 1.1, the relative viability ([16]; first compound 0.05 µM) was 0.899 and the relative viability ([16]; first compound 0.1581 µM) was 0.666. It also gave a relative viability ([16]; first compound 0.5 µM) of 0.452, a relative viability ([17]; first compound 0.01581 µM) of 0.606 and a relative viability ([17]; first compound 0.05 µM) of 0.562. The relative viability ([17]; first compound 0.1581 µM) was 0.389, the relative viability ([17]; first compound 0.5 µM) was 0.314 and the relative viability ([18]; first compound 0.005 µM) was 0.491. It also gave a relative viability ([18]; first compound 0.01581 µM) of 0.356, a relative viability ([18]; first compound 0.05 µM) of 0.142 and a relative viability ([18]; first compound 0.1581 µM) of 0.086. The relative viability ([18]; first compound 0.5 µM) was 0.0694, the relative viability ([19]; first compound 0.005 µM) was 0.732 and the relative viability ([19]; first compound 0.01581 µM) was 0.81. The relative viability ([19]; first compound 0.05 µM) was 0.468, the relative viability ([19]; first compound 0.1581 µM) was 0.218 and the relative viability ([19]; first compound 0.5 µM) was 0.224. For the same compound, the relative viability ([20]; first compound 0.005 µM) was 0.95, the relative viability ([20]; first compound 0.01581 µM) was 0.926 and the relative viability ([20]; first compound 0.05 µM) was 0.927. The relative viability ([20]; first compound 0.1581 µM) was 0.634, the relative viability ([20]; first compound 0.5 µM) was 0.65 and the relative viability ([21]; first compound 0.005 µM) was 0.793. It also gave a relative viability ([21]; first compound 0.01581 µM) of 0.602, a relative viability ([21]; first compound 0.05 µM) of 0.7 and a relative viability ([21]; first compound 0.1581 µM) of 0.219. The relative viability ([21]; first compound 0.5 µM) was 0.182.
